Assay results from patent US20050113405A1, “Methods of treating rheumatoid arthritis using NF-kB inhibitors” (Wyeth, priority 2003, published 2005).

Legend:
HLA-B27 transgenic rats [1] = assay: HLA-B27 transgenic rat, histological scoring of synovitis and cartilage damage in tarsal joints; assay type: in vivo; conditions: 0.6 mg/kg orally for 29 days
Text: (§1) The HLA-B27 transgenic rat expresses two human proteins (HLA-B27 and β2 microglobulin) that, over time, provoke a misdirected immune response. This model represents a chronic intestinal inflammation with associated arthritis induced by the human class I major histocompatibility allele HLA-B27 that is strongly associated with human disease. […] If the disease is allowed to progress, they begin to show symptoms of arthritis. […] Histological scoring of synovitis and cartilage damage in the tarsal joints after 29 days of treatment was also conducted.

HLA-B27 transgenic rats [2] = assay: HLA-B27 transgenic rat, stool and clinical joint scores; assay type: in vivo; conditions: sub-optimal dose 0.6 mg/kg
Text: as §1

COc1cc(OC)cc(N2CCN(C(=O)[C@](C)(C#N)[C@H](c3ccccc3OC)c3cccc4ccccc34)CC2)c1 [Example 4, (S)-3-[4-(3,5-dimethoxyphenyl)piperazin-1-yl]-2-[(S)-(2-methoxyphenyl)(1-naphthyl)methyl]-2-methyl-3-oxopropanenitrile]
melting point: 186 to 188 °C

C[C@]12C=CC(=O)C=C1CC[C@@H]1[C@@H]2[C@@H](O)C[C@@]2(C)[C@H]1CC[C@]2(O)C(=O)CO [Prednisolone]
Tidemark Integrity (0-2) (HLA-B27 transgenic rats [1]): 0
Cartilage Cells (HLA-B27 transgenic rats [1]; mean ± SD): 2.20 ± 0.45
Cartilage Structure (0-6) (HLA-B27 transgenic rats [1]; mean ± SD): 3.40 ± 0.55
Fibroplasia (0-3) (HLA-B27 transgenic rats [1]; mean ± SD): 2.00 ± 0.71
Inflammatory Cells (0-3) (HLA-B27 transgenic rats [1]; mean ± SD): 2.00 ± 0.00
Pannus (0-2) (HLA-B27 transgenic rats [1]; mean ± SD): 1.60 ± 0.89
Safranin-O/Fast Green Staining (0-4) (HLA-B27 transgenic rats [1]; mean ± SD): 3.00 ± 0.00
Synovial Structure (0-3) (HLA-B27 transgenic rats [1]; mean ± SD): 2.40 ± 0.55
Total Mankin Score (HLA-B27 transgenic rats [1]; mean ± SD): 8.60 ± 0.89
Total Synovitis Score (0-11) (HLA-B27 transgenic rats [1]; mean ± SD): 8.00 ± 1.87
improvement in the joint scores (HLA-B27 transgenic rats [2]): 50%
